Results published in patent publication US10766879B2, “Pyrimidine derivatives as kinase inhibitors and their therapeutical applications” (NantBioScience, Inc., priority 2015, dated 2020).

Tests used:
Abl kinase = molecular target: T1, Abl kinase (Homo sapiens, UniProt P00519); test: KinaseProfiler kinase inhibition assay, Abl; format: biochemical; conditions: 1 μM compound
T1 construct: purchased Millipore (KinaseProfiler Service)

Alk kinase = molecular target: T2, Alk kinase (Homo sapiens, UniProt Q9UM73); test: KinaseProfiler kinase inhibition assay, Alk; format: biochemical; conditions: 1 μM compound
T2 construct: purchased Millipore (KinaseProfiler Service)
T2 sequence (Q9UM73 19-1620): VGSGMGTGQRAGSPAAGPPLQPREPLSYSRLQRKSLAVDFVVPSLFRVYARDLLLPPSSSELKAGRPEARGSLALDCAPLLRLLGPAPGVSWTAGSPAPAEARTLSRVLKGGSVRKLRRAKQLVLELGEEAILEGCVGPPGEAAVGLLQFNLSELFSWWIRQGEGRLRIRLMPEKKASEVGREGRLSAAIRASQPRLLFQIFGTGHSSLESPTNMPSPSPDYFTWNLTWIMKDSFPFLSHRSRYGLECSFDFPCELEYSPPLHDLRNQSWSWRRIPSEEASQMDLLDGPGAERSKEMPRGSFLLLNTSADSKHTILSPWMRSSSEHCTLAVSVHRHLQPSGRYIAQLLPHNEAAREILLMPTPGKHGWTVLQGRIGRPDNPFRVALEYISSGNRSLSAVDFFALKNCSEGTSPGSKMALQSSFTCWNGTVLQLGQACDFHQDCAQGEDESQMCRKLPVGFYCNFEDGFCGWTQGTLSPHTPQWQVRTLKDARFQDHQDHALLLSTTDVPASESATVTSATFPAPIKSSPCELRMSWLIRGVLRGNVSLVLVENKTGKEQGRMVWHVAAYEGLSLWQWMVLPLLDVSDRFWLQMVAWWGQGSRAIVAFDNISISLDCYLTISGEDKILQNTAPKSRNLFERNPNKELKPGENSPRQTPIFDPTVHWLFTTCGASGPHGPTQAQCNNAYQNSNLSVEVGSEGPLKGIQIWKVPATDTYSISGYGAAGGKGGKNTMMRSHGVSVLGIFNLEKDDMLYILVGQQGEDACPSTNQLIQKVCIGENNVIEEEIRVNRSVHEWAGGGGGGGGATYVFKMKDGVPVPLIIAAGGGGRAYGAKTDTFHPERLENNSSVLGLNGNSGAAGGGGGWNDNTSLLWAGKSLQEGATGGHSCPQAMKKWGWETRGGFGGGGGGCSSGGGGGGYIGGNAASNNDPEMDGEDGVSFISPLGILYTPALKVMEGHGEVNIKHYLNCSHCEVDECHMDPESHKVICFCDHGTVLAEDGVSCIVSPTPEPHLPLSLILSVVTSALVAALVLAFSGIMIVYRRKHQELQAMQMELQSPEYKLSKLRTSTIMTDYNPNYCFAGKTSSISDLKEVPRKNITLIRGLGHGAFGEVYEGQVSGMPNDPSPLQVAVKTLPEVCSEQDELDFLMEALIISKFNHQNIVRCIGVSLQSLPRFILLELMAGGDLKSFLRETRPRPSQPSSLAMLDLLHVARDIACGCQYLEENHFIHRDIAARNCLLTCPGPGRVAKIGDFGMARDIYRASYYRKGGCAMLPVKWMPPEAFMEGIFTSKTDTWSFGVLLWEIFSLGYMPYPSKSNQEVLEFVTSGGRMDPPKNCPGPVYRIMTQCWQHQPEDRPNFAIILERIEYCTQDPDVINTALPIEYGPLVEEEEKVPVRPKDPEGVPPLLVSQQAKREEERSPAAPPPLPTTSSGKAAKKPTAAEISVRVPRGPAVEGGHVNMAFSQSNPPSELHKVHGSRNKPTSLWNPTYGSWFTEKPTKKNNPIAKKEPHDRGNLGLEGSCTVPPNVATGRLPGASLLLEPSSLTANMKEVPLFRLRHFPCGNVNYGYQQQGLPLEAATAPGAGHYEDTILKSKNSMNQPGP

c-Src kinase = molecular target: T3, c-Src kinase (Homo sapiens, UniProt P12931); test: KinaseProfiler kinase inhibition assay, c-Src; format: biochemical; conditions: 1 μM compound; read-out: % Inhibition @1 μM cSrc
T3 construct: purchased Millipore (KinaseProfiler Service)

FGFR1 kinase = molecular target: T4, FGFR1 kinase (Homo sapiens, UniProt P11362); test: KinaseProfiler kinase inhibition assay, FGFR1; format: biochemical; conditions: 1 μM compound
T4 construct: purchased Millipore (KinaseProfiler Service)
T4 sequence (P11362 22-822): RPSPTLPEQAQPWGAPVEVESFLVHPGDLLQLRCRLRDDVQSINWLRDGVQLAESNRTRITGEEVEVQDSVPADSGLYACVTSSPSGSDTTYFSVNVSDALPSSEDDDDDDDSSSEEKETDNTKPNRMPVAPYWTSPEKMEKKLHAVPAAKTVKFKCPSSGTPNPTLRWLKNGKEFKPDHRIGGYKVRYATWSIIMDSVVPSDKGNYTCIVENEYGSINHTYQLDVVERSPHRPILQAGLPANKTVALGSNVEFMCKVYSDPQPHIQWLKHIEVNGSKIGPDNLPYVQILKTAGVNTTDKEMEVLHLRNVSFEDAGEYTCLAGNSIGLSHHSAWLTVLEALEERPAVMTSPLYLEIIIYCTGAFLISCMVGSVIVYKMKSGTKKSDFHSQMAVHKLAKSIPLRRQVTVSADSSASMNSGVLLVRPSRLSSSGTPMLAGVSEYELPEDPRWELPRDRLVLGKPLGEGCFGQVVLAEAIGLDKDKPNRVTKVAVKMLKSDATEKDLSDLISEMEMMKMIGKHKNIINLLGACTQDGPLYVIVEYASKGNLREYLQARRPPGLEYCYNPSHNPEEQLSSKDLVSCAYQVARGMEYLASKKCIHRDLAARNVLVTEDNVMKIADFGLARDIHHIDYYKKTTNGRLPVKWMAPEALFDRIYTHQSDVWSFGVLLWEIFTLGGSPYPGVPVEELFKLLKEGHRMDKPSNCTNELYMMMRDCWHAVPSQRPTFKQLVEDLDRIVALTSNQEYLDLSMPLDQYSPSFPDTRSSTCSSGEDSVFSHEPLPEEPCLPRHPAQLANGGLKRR

KDR kinase = molecular target: T5, KDR kinase (Homo sapiens, UniProt P35968); test: KinaseProfiler kinase inhibition assay, KDR; format: biochemical; conditions: 1 μM compound
T5 construct: purchased Millipore (KinaseProfiler Service)
T5 sequence (P35968 20-1356): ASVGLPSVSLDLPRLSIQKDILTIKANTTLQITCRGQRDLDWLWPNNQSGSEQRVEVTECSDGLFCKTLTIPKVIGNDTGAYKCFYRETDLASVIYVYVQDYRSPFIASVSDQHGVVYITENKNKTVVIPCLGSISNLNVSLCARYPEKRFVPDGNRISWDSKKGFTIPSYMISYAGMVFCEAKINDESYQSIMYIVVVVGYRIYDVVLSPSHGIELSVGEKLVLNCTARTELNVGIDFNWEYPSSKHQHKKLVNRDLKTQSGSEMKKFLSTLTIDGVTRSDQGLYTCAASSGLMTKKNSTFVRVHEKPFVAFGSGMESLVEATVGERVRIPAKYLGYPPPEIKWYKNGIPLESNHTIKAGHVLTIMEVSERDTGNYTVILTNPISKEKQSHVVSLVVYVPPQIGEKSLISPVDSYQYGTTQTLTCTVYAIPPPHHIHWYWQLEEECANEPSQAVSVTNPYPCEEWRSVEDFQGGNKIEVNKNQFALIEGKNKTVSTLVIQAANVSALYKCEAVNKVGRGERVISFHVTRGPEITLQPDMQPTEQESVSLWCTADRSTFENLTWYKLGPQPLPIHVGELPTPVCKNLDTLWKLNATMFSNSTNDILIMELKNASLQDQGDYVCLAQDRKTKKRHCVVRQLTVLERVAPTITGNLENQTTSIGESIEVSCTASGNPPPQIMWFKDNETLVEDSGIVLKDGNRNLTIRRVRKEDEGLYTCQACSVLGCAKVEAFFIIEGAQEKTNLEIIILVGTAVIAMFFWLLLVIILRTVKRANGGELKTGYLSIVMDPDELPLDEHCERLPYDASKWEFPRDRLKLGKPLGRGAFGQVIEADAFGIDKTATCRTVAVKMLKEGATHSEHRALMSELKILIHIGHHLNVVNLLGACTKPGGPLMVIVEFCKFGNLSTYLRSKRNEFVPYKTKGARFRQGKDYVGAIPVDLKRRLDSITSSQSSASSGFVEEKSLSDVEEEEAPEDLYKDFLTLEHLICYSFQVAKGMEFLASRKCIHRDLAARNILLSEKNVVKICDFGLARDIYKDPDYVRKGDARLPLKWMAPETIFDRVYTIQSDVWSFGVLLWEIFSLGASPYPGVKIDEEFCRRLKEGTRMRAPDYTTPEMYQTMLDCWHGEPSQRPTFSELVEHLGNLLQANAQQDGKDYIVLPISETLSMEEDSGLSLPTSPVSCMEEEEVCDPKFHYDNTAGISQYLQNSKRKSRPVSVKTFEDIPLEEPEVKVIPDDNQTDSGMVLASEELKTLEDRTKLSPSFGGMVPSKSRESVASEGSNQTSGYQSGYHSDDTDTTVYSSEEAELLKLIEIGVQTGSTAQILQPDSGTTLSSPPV

Ret kinase = molecular target: T6, Ret kinase (Homo sapiens, UniProt P07949); test: KinaseProfiler kinase inhibition assay, Ret; format: biochemical; conditions: 1 μM compound
T6 construct: purchased Millipore (KinaseProfiler Service)

Tie2 = molecular target: T7, Tie2 (Homo sapiens, UniProt Q02763); test: KinaseProfiler kinase inhibition assay, Tie2; format: biochemical; conditions: 1 μM compound
T7 construct: purchased Millipore (KinaseProfiler Service)

MDA-MB134 = test: CellTiterblue viability, 72 hr, MDA-MB134; format: cell-based; conditions: MDA-MB134 cells
Protocol: (§1) A number of studies were performed to analyze the consequences of tyrosine kinase inhibition in cell lines. To do this, 1000 cells are seeded in 27 μl/well in 384-well microplates, which are then placed in a humidified CO2 incubator at 37° C. overnight. The next day, 3 μl/well of 10× concentrated drug is added and the plates are returned to the incubator for 72 hr. After 72 hr incubation, plates are removed and […] CellTiterblue (Promega) viability reagent is added. Plates are returned to the incubator for 3 hr, after which it is fluorescence measurements are read on the Victor X3 plate reader (Perkin Elmer). Data are analyzed using Excel (Microsoft), and GI50 values are determined using Prism (Graphpad).

AN3_CA = test: CellTiterblue viability, 72 hr, AN3_CA; format: cell-based; conditions: Homo sapiens, AN3-CA, AN3_CA cells
Protocol: as §1

Kato III = test: CellTiterblue viability, 72 hr, Kato III; format: cell-based; conditions: Homo sapiens, Kato III cells
Protocol: as §1

KG1a = test: CellTiterblue viability, 72 hr, KG1a; format: cell-based; conditions: Homo sapiens, KG-1a, KG1a cells
Protocol: as §1

RT112 = test: CellTiterblue viability, 72 hr, RT112; format: cell-based; conditions: Homo sapiens, RT-112, RT112 cells
Protocol: as §1

T1 sequence (P00519 whole entry): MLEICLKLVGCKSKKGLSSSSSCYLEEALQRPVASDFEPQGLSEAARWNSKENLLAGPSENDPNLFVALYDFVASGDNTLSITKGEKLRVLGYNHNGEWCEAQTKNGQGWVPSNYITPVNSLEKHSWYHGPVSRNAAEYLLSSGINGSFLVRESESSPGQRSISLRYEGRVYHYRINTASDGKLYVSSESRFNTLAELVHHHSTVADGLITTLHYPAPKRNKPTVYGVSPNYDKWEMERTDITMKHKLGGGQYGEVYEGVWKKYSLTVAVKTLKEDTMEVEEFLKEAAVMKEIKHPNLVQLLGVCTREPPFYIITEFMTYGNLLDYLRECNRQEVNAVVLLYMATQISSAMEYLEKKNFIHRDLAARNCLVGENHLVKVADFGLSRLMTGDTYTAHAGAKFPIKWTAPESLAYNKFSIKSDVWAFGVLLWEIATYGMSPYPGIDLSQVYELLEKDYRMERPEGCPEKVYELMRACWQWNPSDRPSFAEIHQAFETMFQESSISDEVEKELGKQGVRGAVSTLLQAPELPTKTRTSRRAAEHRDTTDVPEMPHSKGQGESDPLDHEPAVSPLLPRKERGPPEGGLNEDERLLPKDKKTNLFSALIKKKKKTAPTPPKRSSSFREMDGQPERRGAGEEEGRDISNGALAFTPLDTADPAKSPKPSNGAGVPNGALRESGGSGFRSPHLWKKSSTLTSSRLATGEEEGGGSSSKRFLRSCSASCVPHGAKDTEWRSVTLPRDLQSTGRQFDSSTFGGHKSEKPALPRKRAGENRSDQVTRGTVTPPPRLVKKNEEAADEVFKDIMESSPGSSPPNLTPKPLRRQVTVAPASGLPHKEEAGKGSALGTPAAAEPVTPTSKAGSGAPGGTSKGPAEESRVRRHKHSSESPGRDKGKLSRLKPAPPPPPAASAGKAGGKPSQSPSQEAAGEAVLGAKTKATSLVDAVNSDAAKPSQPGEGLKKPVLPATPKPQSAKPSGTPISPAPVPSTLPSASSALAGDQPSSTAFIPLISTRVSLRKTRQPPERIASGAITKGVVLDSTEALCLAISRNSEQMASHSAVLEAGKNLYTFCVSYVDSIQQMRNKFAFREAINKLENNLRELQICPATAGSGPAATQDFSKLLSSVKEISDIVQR

Structure (SMILES) | inhibition at 1 µM (Abl kinase) [%] | inhibition at 1 µM (Alk kinase) [%] | inhibition at 1 µM (c-Src kinase) [%] | inhibition at 1 µM (FGFR1 kinase) [%] | inhibition at 1 µM (KDR kinase) [%] | inhibition at 1 µM (Ret kinase) [%] | inhibition at 1 µM (Tie2) [%] | GI50 (MDA-MB134) [nM] | GI50 (AN3_CA) [nM] | GI50 (Kato III) [nM] | GI50 (KG1a) [nM] | GI50 (RT112) [nM]
Cc1cc2c(F)c(Oc3ncnc(Nc4ccc(N5CCN(C)CC5)cc4)c3Cl)ccc2[nH]1 [Compound 35, 5-chloro-6-((4-fluoro-2-methyl-1H-indol-5-yl)oxy)-N-(4-(4-methylpiperazin-1-yl)phenyl)pyrimidin-4-amine] | -15 | -43 | 2 | 96 | 20 | -22 | 19 | > 500 | > 500 | > 500 | > 500 | > 500
Cc1cc2c(F)c(Oc3ncnc(Nc4ccc(N5CCN(C)CC5)cc4)c3C)ccc2[nH]1 [Compound 40] | 2 | -23 | -2 | 91 | 12 | -46 | 13 | 430 | > 500 | > 500 | > 500 | > 500
Cc1cc2c(F)c(Oc3ncnc(Nc4ccc(N5CCN(C)CC5)cn4)c3C)ccc2[nH]1 [Compound 41] | 2 | -41 | 8 | 41 | 5 | -35 | 12 | 241 | > 500 | > 500 | > 500 | > 500
COc1c(Nc2ccc(N3CCN(C)CC3)cc2)ncnc1Oc1ccc2[nH]c(C)cc2c1F [Compound 43] | -10 | -32 | -4 | 48 | -7 | -28 | 21 | > 500 | > 500 | > 500 | > 500 | > 500
CC(=O)N1CCN(c2ccc(Nc3cc(Oc4cc(F)c5[nH]c(C)cc5c4F)ncn3)cc2)CC1 [Compound 50] | 36 | 63 | 58 | 89 | 97 | 36 | 48 | – | > 500 | 348 | – | –
Cc1cc2c(F)c(Oc3cc(Nc4cc(-c5ccccc5)[nH]n4)ncn3)ccc2[nH]1 [Example 4] | 23 | 53 | 36 | 59 | 98 | 27 | 30 | – | > 500 | – | – | –
CC(=O)Nc1ccc(Nc2cc(Oc3ccc4[nH]c(C)cc4c3F)ncn2)cc1 [Example 7] | 8 | 61 | 14 | 96 | 98 | -16 | 4 | – | > 500 | > 500 | – | –
Cc1cc2c(F)c(Oc3cc(Nc4cccc(N5CCOCC5)c4)ncn3)ccc2[nH]1 [Example 8] | 11 | 60 | 15 | 97 | 98 | 22 | 2 | – | > 500 | > 500 | – | –
Cc1cc2c(F)c(Oc3cc(Nc4ccc(N5CCOCC5)cc4)ncn3)ccc2[nH]1 [Example 9] | 21 | 70 | 20 | 75 | 96 | 35 | 24 | – | > 500 | > 500 | – | –
CNC(=O)c1ccc(Nc2cc(Oc3ccc4[nH]c(C)cc4c3F)ncn2)cc1 [Example 12] | 18 | 60 | 30 | 89 | 98 | 21 | 20 | – | > 500 | > 500 | – | –
Cc1cc2c(F)c(Oc3cc(Nc4cccc(N5CCN(C)CC5)c4)ncn3)ccc2[nH]1 [Example 13] | 41 | 60 | 32 | 98 | 98 | 61 | 70 | – | > 500 | 170 | – | –
Cc1cc2c(F)c(Oc3cc(Nc4ccccn4)ncn3)ccc2[nH]1 [Example 18] | 45 | 15 | 21 | 87 | 92 | 68 | 48 | – | > 500 | – | – | –
CCOC(=O)c1cc(Nc2cc(Oc3ccc4[nH]c(C)cc4c3F)ncn2)n[nH]1 [Example 19] | 18 | -5 | 8 | 59 | 89 | 48 | 13 | – | > 500 | – | – | –
Cc1cc2c(F)c(Oc3ncnc(Nc4ccc(N5CCN(C)CC5)cc4)c3F)ccc2[nH]1 [Example 24] | 0 | 38 | 11 | 97 | 96 | -12 | -6 | – | > 500 | 386 | – | –
CC(=O)N1CCN(c2ccc(Nc3ncnc(Oc4ccc5[nH]c(C)cc5c4F)c3F)cc2)CC1 [Example 26] | 7 | 68 | 16 | 46 | 96 | -17 | -11 | – | > 500 | > 500 | – | –
Cc1cc2c(F)c(Oc3ncnc(Nc4ccc(N5CCN(C)CC5)cn4)c3F)ccc2[nH]1 [Example 27] | 4 | 35 | 11 | 85 | 79 | -46 | -2 | – | > 500 | > 500 | – | –
Cc1cc2c(F)c(Oc3ncnc(Nc4ccc(N5CCNCC5)cc4)c3F)ccc2[nH]1 [Example 28] | 12 | 62 | 17 | 96 | 97 | -15 | -7 | – | > 500 | > 500 | – | –
CCN1CCN(c2ccc(Nc3ncnc(Oc4ccc5[nH]c(C)cc5c4F)c3F)nc2)CC1 [Example 29, N-(5-(4-ethylpiperazin-1-yl)pyridin-2-yl)-5-fluoro-6-((4-fluoro-2-methyl-1H-indol-5-yl)oxy)pyrimidin-4-amine] | -7 | -48 | 15 | 92 | 70 | -29 | 33 | > 500 | > 500 | > 500 | – | –
